In PMC9861858, “Stereoselective Synthesis and Antiproliferative Activities of Tetrafunctional Diterpene Steviol Derivatives” (International Journal of Molecular Sciences, 2023):
In brackets after ≈: the same amount, converted by molar mass. Entries after “also recorded” stand apart in the source; their conditions may differ.

What was measured:
[1] = tested on: SiHa cells; assay: MTT antiproliferative assay, SiHa; assay type: cell-based, human; details: for inhibition at 10 µM / inhibition at 30 µM: Homo sapiens, SiHa, 72 h, values <20% considered negligible, read-out: Growth inhibition (%) ± SEM, SiHa
Description: (§1) The in vitro antiproliferative activities of the synthesised aminotriols 5–18 against a panel of different human cancer cell lines of gynecological origin, including cervical (SiHA and HeLa), breast (MCF7 and MDA-MB-231), ovary (A2780) cancers and NIH/3T3 healthy fibroblasts, were assayed by the MTT method. Cisplatin, a clinically applied anticancer agent was used as a reference compound, and the results are summarised in Figure 3 and Table S1 in the Supplementary Materials.
(§2) The growth-inhibitory effects of the presented terpenes were determined by a standard MTT [3-(4,5-dimethylthiazol2-yl)-2,5-diphenyltetrazolium bromide] assay against […] human cancer cell lines (cervical cancer HeLa and SiHa cell lines, breast cancer MCF-7 and MDA-MB-231 and ovarian cancer A2780). Murine embryonal fibroblast cells (NIH/3T3) were used to determine selectivity. All cell lines were purchased from the European Collection of Cell Cultures (Salisbury, UK). The cells were cultivated in Eagle’s minimal essential medium supplemented with 10% fetal bovine serum, 1% non-essential amino acids, and 1% Antibiotic-Antimycotic complex (penicillin, streptomycin, amphotericin B) at 37 °C in a humidified atmosphere containing 5% CO2. All media and supplements were purchased from Lonza Group Ltd. (Basel, Switzerland). Cancer cells were seeded into 96-well plates (5000 cells/well) after an overnight incubation, and the test compounds were added at two different concentrations (10 μM and 30 μM) and incubated for another 72 h under cell-culturing conditions. Finally, 20 μL of a 5 mg/mL MTT solution was added to each well, and the contents were incubated for a further 4 h. The medium was removed, and the precipitated formazan crystals were dissolved in DMSO by shaking at 37 °C for 60 min. The absorbance was measured at 545 nm by using a microplate reader (SPECTROStar Nano, BMG Labtech, Offenburg, Germany). Clinically utilised anticancer agent cisplatin (Ebewe GmbH, Unterach, Austria) was included as a reference molecule. Calculations were performed using the GraphPad Prism 9 software (GraphPad Software Inc., San Diego, CA, USA).

[2] = Kinetic aqueous solubility; assay type: physicochemical; details: phosphate buffered saline with 5% DMSO, aqueous with cosolvent or surfactant or cyclodextrin, kinetic from dmso stock; after 2 h, at 37 °C in PBS, pH 7.4, 5% DMSO; target concentration 500 μM; mean ± S.E.M, n = 3
Description: (§3) Filtrates and calibration solutions (5–500 μ M) of the kinetic solubility study and starting donor and acceptor solutions of the PAMPA-GI study were investigated by HPLC-DAD-MS. LC-MS analysis was performed using a Waters 2795 HPLC with a Waters 2487 DAD detector coupled with a Micromass Quattro Ultima TMPt quadrupol mass spectrometer equipped with an ESI source. Measurements were performed on a Waters XSelect C18 (150 × 4.6 mm; 3.5 μm) column with a […] eluent flow rate and the temperature set at 40 °C. The composition of eluent A was MilliQ water with 0.1% formic acid, and that of eluent B was an acetonitrile and MilliQ water mixture (95:5, v/v), also with 0.1% formic acid. The following linear gradient program was used: 0–6 min, 10–100% B; this was held for 3 min, then from 9.01 min on, back to the starting composition of 10% B–90% A. The injection volume was 10 μL for each sample. Chromatographic profiles were registered at dual wavelength, 220 and 240 nm. The mass spectrometer was used in negative ion mode for samples 2, 3 and 4b, and in positive ion mode for other samples. The operating parameters of the MS were: Mass range of m/z 150–700. Nitrogen gas flow rate was 350 L/h, temperature of 350 °C and pressure of 6 bar. The quadrupol temperature was 120 °C, and the capillary voltage was 2.5 kV. Fragmentor’s voltage of 60 V.
(§4) Intestinal (GI) permeability was determined by using an intestinal-specific parallel artificial membrane permeability assay (PAMPA-GI [36]]). […] All solutions were filtered by MultiScreen HTS Vacuum Manifold (Merck Ltd., Budapest, Hungary) after the incubation period. The target concentration was 500 μM for every sample investigated. The intestinal-specific effective permeability of the samples was determined by PAMPA-GI. To prepare starting solutions for a 96-well donor plate, 15 μLs of the 10 mM DMSO stock solution of investigation compounds and 285 μL pH 6.5 phosphate buffer solution were mixed. These solutions were left in a shaking incubator (300 rpm) at 25 °C for 1 h. Meanwhile, a 96-well acceptor plate was filled with 300 μL of pH 7.4 PBS buffer solution containing 5% DMSO. The intestinal-specific artificial membrane was prepared the following way: the hydrophobic filter material of the donor plate was coated with a mixture of phosphatidylcholine/cholesterol = 2:1 (5 μL, 4 % (w/v) in dodecane). After that, all donor wells were filled with 150 μL of the starting donor solutions, and they were carefully placed on the acceptor plate and incubated at 37 °C for 4 h. After the end of the incubation period the donor and acceptor plates were separated carefully. A total of 150 μL of the donor, acceptor and the starting donor solutions were sampled and analysed with HPLC-DAD-MS. The effective permeability and membrane retention of drugs were calculated using the following equations: Pe=−2.303/A·(t−τss)·1/1+rv·lg[−rv+(1+rv/1−MR)·]CD(t)/CD(0) MR=1−CD(t)/CD(0)−VA·CA(t)/VD·CD(0) where Pe is the effective permeability coefficient (cm/s), A is the filter area (0.3 cm^2), VD and VA are the volumes in the donor (0.15 cm^3) and acceptor phase (0.3 cm^3), t is the incubation time (s), τSS is the time to reach steady-state (s), CD(t) is the concentration of the compound in the donor phase at time point t (mol/cm^3), CD(0) is the concentration of the compound in the donor phase at time point zero (mol/cm^3), rv is the aqueous compartment volume ratio (VD/VA), MR is the membrane retention factor.

[3] = tested on: MCF-7 cells; assay: MTT antiproliferative assay, MCF-7; assay type: cell-based, human; details: for inhibition at 10 µM / inhibition at 30 µM: Homo sapiens, 72 h, values <20% considered negligible, read-out: Growth inhibition (%) ± SEM, MCF-7; for inhibition at 10 µM: MCF7, 10 μM; for inhibition at 30 µM: MCF7, 30 μM; for Antiproliferative effect / selectivity on MCF-7, in words: 10 and 30 μM
Description: as §1, §2

[4] = tested on: HeLa cells; assay: MTT antiproliferative assay, HeLa; assay type: cell-based, human; details: Homo sapiens, HeLa, 72 h, values <20% considered negligible, read-out: Growth inhibition (%) ± SEM, HeLa
Description: as §1, §2

[5] = tested on: MDA-MB-231 cells; assay: MTT antiproliferative assay, MDA-MB-231; assay type: cell-based, human; details: for inhibition at 10 µM / inhibition at 30 µM: Homo sapiens, 72 h, values <20% considered negligible, read-out: Growth inhibition (%) ± SEM, MDA-MB-231; for inhibition at 10 µM: MDA-MB-231, 10 μM; for inhibition at 30 µM: MDA-MB-231, 30 μM
Description: as §1, §2

[6] = tested on: NIH/3T3 fibroblasts; assay: MTT assay on fibroblasts (selectivity); assay type: cell-based, murine; details: Mus musculus, 72 h, values <20% considered negligible, read-out: Growth inhibition (%) ± SEM, NIH/3T3; for inhibition at 10 µM: NIH3T3, 10 μM; for inhibition at 30 µM: NIH3T3, 30 μM
Description: as §1, §2

[7] = tested on: A2780 cells; assay: MTT antiproliferative assay, A2780; assay type: cell-based, human; details: for inhibition at 10 µM / inhibition at 30 µM: Homo sapiens, 72 h, values <20% considered negligible, read-out: Growth inhibition (%) ± SEM, A2780; for inhibition at 10 µM: A2780, 10 μM; for inhibition at 30 µM: A2780, 30 μM
Description: as §1, §2

[8] = Intestinal-specific parallel artificial membrane permeability assay (PAMPA-GI); assay type: in vitro ADME; details: gradient pH system (pH donor 6.5 → pH acceptor 7.4) after 4 h, at 37 °C, mean ± S.E.M, n = 3
Description: as §3, §4

Row | solubility kinetic at 2 h [2] | PAMPA-GI MR (membrane retention) [8] | melting point | Papp at 4 h, 500 µM ([8]; PAMPA, read-out: PAMPA-GI Pe) | Structure (SMILES) | inhibition at 10 µM [1] | inhibition at 30 µM [1] | inhibition at 10 µM [3] | inhibition at 30 µM [3] | inhibition at 10 µM [4] | inhibition at 30 µM [4] | inhibition at 10 µM [5] | inhibition at 30 µM [5] | inhibition at 10 µM [6] | inhibition at 30 µM [6] | inhibition at 10 µM [7] | inhibition at 30 µM [7] | Antiproliferative effect / selectivity on MCF-7, in words [3] | Antiproliferative effect on SiHa, in words ([1]; 10 and 30 μM) | Antiproliferative effect / selectivity on MDA-MB-231, in words ([5]; 10 and 30 μM) | Antiproliferative effect on A2780, in words ([7]; 10 and 30 μM)
1 | 18.9 ± 2.4 µM (≈ 9.86 µg/mL) | 94.2 ± 2.0% | 138 to 140 °C | – | COC(=O)[C@]1(C)CCC[C@@]2(C)C3CC[C@]4(O)C[C@@]3(CCC21)[C@@H](O)[C@]4(O)CNCc1cccc2ccccc12 (stereo partly drawn) [Compound 14, (4R,6aR,7R,8R,9S,11bS)-Methyl 7,8,9-Trihydroxy-4,11b-dimethyl-8-(((naphthalen-1-ylmethyl)amino)methyl)tetradecahydro-6a,9-methanocyclohepta[a]naphthalene-4-carboxylate] | 97.24 ± 0.39% | 96.7 ± 0.65% | 97.57 ± 0.19% | 97.66 ± 0.28% | 97.2 ± 0.92% | 98.14 ± 0.36% | 97.41 ± 0.21% | 96.46 ± 0.34% | 93.25 ± 0.51% | 97.34 ± 0.26% | 92.2 ± 3.33% | 96.81 ± 0.23% | – | – | – | –
2 | 143 ± 26.8 µM (≈ 71.7 µg/mL) | 6.1 ± 1.1% | 161 to 163 °C | 0.37 ± 0.11 ×10⁻⁶ cm/s | COC(=O)[C@]1(C)CCC[C@@]2(C)C3CC[C@]4(O)C[C@@]3(CCC21)[C@@H](O)[C@]4(O)CNCc1ccc(OC)cc1 (stereo partly drawn) [Compound 10, (4R,6aR,7R,8R,9S,11bS)-Methyl 7,8,9-Trihydroxy-8-(((4-methoxybenzyl)amino)methyl)-4,11b-dimethyltetradecahydro-6a,9-methanocyclohepta[a]naphthalene-4-carboxylate] | 24.1 ± 1.39% | 94.64 ± 0.5% | 74.3 ± 2.62% | 95.66 ± 0.76% | 27.8 ± 1.05% | 96.06 ± 0.93% | 37.8 ± 2.27% | 93.42 ± 0.56% | < 20% | 90.9 ± 1.17% | < 20% | 96.79 ± 0.25% | higher selectivity; also recorded: performed best | – | – | –
3 | 13.3 ± 0.9 µM (≈ 7.13 µg/mL) | 92.6 ± 2.1% | 93 to 95 °C | – | COC(=O)[C@]1(C)CCC[C@@]2(C)C3CC[C@]4(O)C[C@@]3(CCC21)[C@@H](O)[C@]4(O)CN[C@H](C)c1ccc2ccccc2c1 (stereo partly drawn) [Compound 12, (4R,6aR,7R,8R,9S,11bS)-Methyl 7,8,9-Trihydroxy-4,11b-dimethyl-8-((((R)-1-(naphthalen-2-yl)ethyl)amino)methyl)tetradecahydro-6a,9-methanocyclohepta[a]naphthalene-4-carboxylate] | 96.08 ± 0.6% | 95.49 ± 0.86% | 96.35 ± 0.36% | 95.87 ± 0.38% | 96.82 ± 0.56% | 96.94 ± 0.49% | 95.84 ± 0.29% | 95.62 ± 0.34% | 90.07 ± 0.51% | 94.67 ± 0.24% | 96.68 ± 0.36% | 96.38 ± 0.3% | – | – | – | –
4 | 321 ± 88.5 µM (≈ 155 µg/mL) | 2.7 ± 0.4% | 123 to 125 °C | – | COC(=O)[C@]1(C)CCC[C@@]2(C)C3CC[C@]4(O)C[C@@]3(CCC21)[C@@H](O)[C@]41CN(Cc2ccccc2)CO1 (stereo partly drawn) [Compound 18, (4R,5’R,6aR,7R,9S,11bS)-Methyl 3’-Benzyl-7,9-dihydroxy-4,11b-dimethyldodecahydro-1H-spiro [6a,9-methanocyclohepta[a]naphthalene-8,5’-oxazolidine]-4-carboxylate] | < 20% | 66.1 ± 2.45% | < 20% | 95.18 ± 0.35% | < 20% | 41.1 ± 1.95% | < 20% | 87.7 ± 0.91% | < 20% | < 20% | < 20% | 58.5 ± 3.18% | Selectivity for MCF-7 cells increased slightly | moderate activity | moderate activity; also recorded: smaller but also selective antiproliferative effect | moderate activity
